Laboratory results reported in PMC7822874, “Chemoprotective antimalarials identified through quantitative high-throughput screening of Plasmodium blood and liver stage parasites” (Scientific Reports, 2021).
Where two headings read alike, the source gives them in different places.

Columns and labels:
HepG2-A16-CD81EGFP cells = conditions: average of 2 wells; for HepG2 1uM growth rep1 / HepG2 1uM growth rep2: HepG2, 1 µM compound treatment (10 mM stocks); for HepG2 1uM growth rep1 / HepG2 3uM growth rep1: replicate 1, normalized; for HepG2 1uM growth rep2 / HepG2 3uM growth rep2: replicate 2, normalized; for HepG2 3uM growth rep1 / HepG2 3uM growth rep2: HepG2, 3 µM compound treatment (10 mM stocks)
[1] = system: P. berghei-ANKA-GFP-LucCON liver stage parasites in HepG2-A16-CD81EGFP cells; experiment: P. berghei liver stage Pb-Luc assay, Method 1 (UCSD, 1536-well); assay type: cell-based, Plasmodium berghei; conditions: for activity at 1 µM / activity at 3 µM / AC50: Plasmodium berghei; for activity at 1 µM / activity at 3 µM: 48 h; for activity at 1 µM / activity at 3 µM / PbLuc 1uM growth rep1 / PbLuc 1uM growth rep2 / PbLuc 3uM growth rep1 / PbLuc 3uM growth rep2: average of 2 wells on a 1536 well plate
[2] = system: Plasmodium falciparum Dd2 asexual blood stage parasites; experiment: microbe, parasite or virus in culture; parameters: species or system Plasmodium falciparum Dd2 in human erythrocytes; single determination (one 11-point concentration-response curve); conditions: Plasmodium falciparum, DD2, Erythrocyte, 72 h; read-out: AC50
in vitro = conditions: human, HepG2-A16-CD81EGFP cells, uninfected
[3] = P. berghei liver stage, 1 µM compound treatment (10 mM stocks), replicate 1, normalized, read-out: PbLuc 1uM growth rep1
[4] = P. berghei liver stage, 1 µM compound treatment (10 mM stocks), replicate 2, normalized, read-out: PbLuc 1uM growth rep2
[5] = P. berghei liver stage, 3 µM compound treatment (10 mM stocks), replicate 1, normalized, read-out: PbLuc 3uM growth rep1
[6] = P. berghei liver stage, 3 µM compound treatment (10 mM stocks), replicate 2, normalized, read-out: PbLuc 3uM growth rep2
[7] = P. berghei liver stage, 1 µM compound treatment (10 mM stocks), replicate 1, normalized
[8] = P. berghei liver stage, 1 µM compound treatment (10 mM stocks), replicate 2, normalized
[9] = P. berghei liver stage, 3 µM compound treatment (10 mM stocks), replicate 1, normalized
[10] = P. berghei liver stage, 3 µM compound treatment (10 mM stocks), replicate 2, normalized
[11] = 1 uM (compounds provided at 10 mM), column 11, read-out: Pb-Luc (P. berghei liver stage), % of control, lower concentration, first repeat
[12] = 1 uM (compounds provided at 10 mM), column 12, read-out: Pb-Luc (P. berghei liver stage), % of control, lower concentration, second repeat
[13] = 3 uM (compounds provided at 10 mM), column 8, read-out: Pb-Luc (P. berghei liver stage), % of control, higher concentration, first repeat
[14] = 3 uM (compounds provided at 10 mM), column 9, read-out: Pb-Luc (P. berghei liver stage), % of control, higher concentration, second repeat

SMILES: Cc1ccc(Nc2cc(C)nc(NCc3ccccc3)n2)cc1 [MLS000574704-01]
- HepG2 1uM growth rep1 (HepG2-A16-CD81EGFP cells): 83%
- HepG2 1uM growth rep2 (HepG2-A16-CD81EGFP cells): 84%
- HepG2 3uM growth rep1 (HepG2-A16-CD81EGFP cells): 81%
- HepG2 3uM growth rep2 (HepG2-A16-CD81EGFP cells): 80%
- activity at 1 µM [1, 3]: 61%
- activity at 1 µM [1, 4]: 54%
- activity at 3 µM [1, 5]: 31%
- activity at 3 µM [1, 6]: 43%

SMILES: Cc1ccc(NC2=C/C(=N/S(=O)(=O)c3cccs3)c3ccccc3C2=O)cc1C [MLS000585841-01]
- HepG2 1uM growth rep1 (HepG2-A16-CD81EGFP cells): 102%
- HepG2 1uM growth rep2 (HepG2-A16-CD81EGFP cells): 96%
- HepG2 3uM growth rep1 (HepG2-A16-CD81EGFP cells): 77%
- HepG2 3uM growth rep2 (HepG2-A16-CD81EGFP cells): 86%
- PbLuc 1uM growth rep1 [1, 7]: 82%
- PbLuc 1uM growth rep2 [1, 8]: 86%
- PbLuc 3uM growth rep1 [1, 9]: 57%
- PbLuc 3uM growth rep2 [1, 10]: 72%

SMILES: Cc1ccc(Nc2cc(C)c3ccc(O)cc3n2)cc1C.Cl [MLS000674791-01]
- HepG2 1uM growth rep1 (HepG2-A16-CD81EGFP cells): 98%
- HepG2 1uM growth rep2 (HepG2-A16-CD81EGFP cells): 92%
- HepG2 3uM growth rep1 (HepG2-A16-CD81EGFP cells): 89%
- HepG2 3uM growth rep2 (HepG2-A16-CD81EGFP cells): 95%
- PbLuc 1uM growth rep1 [1, 7]: 115%
- PbLuc 1uM growth rep2 [1, 8]: 107%
- PbLuc 3uM growth rep1 [1, 9]: 69%
- PbLuc 3uM growth rep2 [1, 10]: 101%

SMILES: Oc1ccccc1Nc1nc(NCc2ccccc2)c2ccccc2n1 [MLS000693415-01]
- HepG2 1uM growth rep1 (HepG2-A16-CD81EGFP cells): 89%
- HepG2 1uM growth rep2 (HepG2-A16-CD81EGFP cells): 90%
- HepG2 3uM growth rep1 (HepG2-A16-CD81EGFP cells): 92%
- HepG2 3uM growth rep2 (HepG2-A16-CD81EGFP cells): 90%
- activity at 1 µM [1, 3]: 72%
- activity at 1 µM [1, 4]: 80%
- activity at 3 µM [1, 5]: 65%
- activity at 3 µM [1, 6]: 75%

SMILES: Cc1ccc(-c2cc(C(=O)Nc3ccc(S(=O)(=O)N4CC(C)OC(C)C4)cc3)[nH]n2)c(O)c1 (stereo not shown) [MLS000779230-01]
- HepG2 1uM growth rep1 (HepG2-A16-CD81EGFP cells): 106%
- HepG2 1uM growth rep2 (HepG2-A16-CD81EGFP cells): 100%
- HepG2 3uM growth rep1 (HepG2-A16-CD81EGFP cells): 84%
- HepG2 3uM growth rep2 (HepG2-A16-CD81EGFP cells): 94%
- PbLuc 1uM growth rep1 [1, 7]: 151%
- PbLuc 1uM growth rep2 [1, 8]: 112%
- PbLuc 3uM growth rep1 [1, 9]: 73%
- PbLuc 3uM growth rep2 [1, 10]: 94%

SMILES: Cc1ccc(C)c(NC(=O)CN(C)C(=O)c2ccc(-c3ccc(Cl)cc3)o2)c1 [MLS001077062-01]
- AC50 [2]: 4.73 µM
- viability at 48 h, 1 µM (in vitro): 98%
- viability at 48 h, 3 µM (in vitro): 102%
- activity at 1 µM [1, 11]: 137%
- activity at 1 µM [1, 12]: 128%
- activity at 3 µM [1, 13]: 154%
- activity at 3 µM [1, 14]: 145%

SMILES: COc1cc2ccccc2cc1C(=O)N1CC(C)CC(C)C1 (stereo not shown) [MLS001129394-01]
- AC50 [2]: 2.37 µM
- viability at 48 h, 1 µM (in vitro): 108%
- viability at 48 h, 3 µM (in vitro): 98%
- activity at 1 µM [1, 11]: 125%
- activity at 1 µM [1, 12]: 114%
- activity at 3 µM [1, 13]: 67%
- activity at 3 µM [1, 14]: 101%

SMILES: CN(CC(=O)Nc1cccc(F)c1)C(=O)c1ccc(-c2cccc(C(F)(F)F)c2)o1 [MLS001139679-01]
- AC50 [2]: 0.668 µM
- viability at 48 h, 1 µM (in vitro): 103%
- viability at 48 h, 3 µM (in vitro): 99%
- activity at 1 µM [1, 11]: 156%
- activity at 1 µM [1, 12]: 127%
- activity at 3 µM [1, 13]: 81%
- activity at 3 µM [1, 14]: 96%

SMILES: COc1cccc(NC(=O)CN(C)C(=O)c2ccc(-c3ccc(Cl)cc3)o2)c1 [MLS001142098-01]
- AC50 [2]: 4.22 µM
- viability at 48 h, 1 µM (in vitro): 100%
- viability at 48 h, 3 µM (in vitro): 100%
- activity at 1 µM [1, 11]: 146%
- activity at 1 µM [1, 12]: 155%
- activity at 3 µM [1, 13]: 150%
- activity at 3 µM [1, 14]: 187%

SMILES: CCCCCCCNC(=O)C1(CC2CC(c3ccc(Cl)cc3)=NO2)CCN(C(=O)c2cc(OCC)c(OCC)c(OCC)c2)CC1 (stereo not shown) [MLS001143958-01]
- AC50 [2]: 3.35 µM
- viability at 48 h (in vitro): 103%
- viability at 48 h, 1 µM (in vitro): 103%
- Max Resp (signal direction of the dose response) ([1]; Method 1, Decrease = decreasing P. berghei viability with dose, Increase = increasing signal, Inactive = no dose response): Decrease
- AC50 ([1]; Method 1, Hill fit, 50% of maximum activity response, read-out: AC50): 2.82 µM
- AC50 ([1]; Method 1, log10 of molar AC50 from Hill fit, read-out: Log AC50 (converted)): 2.82 µM

SMILES: CCCc1cc(=O)oc2cc(C)cc(OCC(=O)Nc3ccccn3)c12 [MLS001160382-01]
- AC50 [2]: 2.11 µM
- viability at 48 h, 1 µM (in vitro): 97%
- viability at 48 h, 3 µM (in vitro): 111%
- activity at 1 µM [1, 11]: 212%
- activity at 1 µM [1, 12]: 140%
- activity at 3 µM [1, 13]: 42%
- activity at 3 µM [1, 14]: 160%

SMILES: Cc1ccc(C)c(NC(=O)CN(C)C(=O)c2ccc(-c3cccc(C(F)(F)F)c3)o2)c1 [MLS001161354-01]
- AC50 [2]: 2.11 µM
- viability at 48 h, 1 µM (in vitro): 98%
- viability at 48 h, 3 µM (in vitro): 102%
- activity at 1 µM [1, 11]: 171%
- activity at 1 µM [1, 12]: 168%
- activity at 3 µM [1, 13]: 154%
- activity at 3 µM [1, 14]: 126%
